Values quoted from earlier work, collected in US20230181491A1, “COMPOSITIONS AND METHODS FOR THE TREATMENT AND MANAGEMENT OF INFLAMMATION USING HYDROXYNORKETAMINE” (SPIRIFY PHARMA INC., priority 2020, published 2023).
Counter-ions that a name gives are not always drawn.

system: rats; conditions: cited from earlier work

| Compound | spontaneous locomotor activity during the postanesthetic recovery phase |
| --- | --- |
| CNC1(c2ccccc2Cl)CCCCC1=O (racemic) [(R,S)-ketamine hydrochloride] | increased spontaneous locomotor activity |
| NC1(c2ccccc2Cl)CCCCC1=O (racemic) [(R,S)-norketamine] | increased spontaneous locomotor activity |
| (2R,6R;2S,6S)-HNK | no anesthetic or hyperlocomotor effects |
